Here are results for ten compounds from ChEMBL document CHEMBL1201862, “PubChem BioAssay data set” (2004).

Holding throughout (assay): DTP human tumour cell line panel, 48 h
Assay [1] relates to A498.
Assay [2] concerns BT-549.
For assay [3], the system named is COLO 205.
Assay [4] concerns HOP-62.
For assay [5], the system named is IGROV-1.
The test system of assay [6] is K562.
The test system of assay [7] is M14.
The subject of assay [8] is MDA-MB-435.
Assay [9] concerns MDA-N.
The subject of assay [10] is NCI-H460.
In assay [11] the test system is NCI-H522.
The test system of assay [12] is OVCAR-3.
The test system of assay [13] is OVCAR-5.
Assay [14] deals with RPMI-8226.
In assay [15] the test system is SK-MEL-2.
Assay [16] concerns SN12C.
The subject of assay [17] is SNB-75.
For assay [18], the system named is SW-620.
For assay [19], the system named is T47D.
The subject of assay [20] is U-251.

As a reminder, the GI50 is the concentration at which growth is held to half of that of the control.

The structures appear in SMILES notation.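 Cells were grown in 96-well plates and exposed to each compound for 48 hours at five concentrations; endpoints were interpolated linearly between bracketing concentrations, or set to the highest concentration if not reached. The concentration for 50% growth inhibition is given as GI50.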 Calls of active or inactive are those of the source. Cut-off read from the data, not from the text of the source: active = GI50 up to about 1.1 µM and inactive = higher.

As for `CC(C)=CC(=O)OC1C2C(C)=CC(=O)C(O)C2(C)C2C3(O)OCC24C(CC(=O)OC14)C(C)C3O` (stereo not given), the GI50 in assay [1] is 0.117 µM (active); in [2], 0.00287 µM (active); in assay [3] it was 0.0975 µM (active); in assay [4], 0.00942 µM (active); in [5], 0.00849 µM (active); in assay [6], 0.00521 µM (active). Also, the GI50 was 0.0023 µM (active) in [7]; 0.003 µM (active) in assay [8]; 0.00208 µM (active) in assay [9]; 0.0294 µM (active) in assay [10]; 0.00283 µM (active) in assay [11]; 0.00624 µM (active) in assay [12]. For the same compound, the GI50 in [13] was 0.0101 µM (active); in [14] it was 0.00755 µM (active); in assay [15] it was 0.0179 µM (active); in assay [16], 0.0479 µM (active); in [17], 0.0141 µM (active); in assay [18] it was 0.00822 µM (active). For the same compound, the GI50 in assay [19] was 0.00288 µM (active); in [20], 0.00324 µM (active).
In the case of `CC(=O)O[C@@H]1C[C@@]23C[C@@]24CC[C@H](OC2OCC(O)C(O)C2O)C(C)(C)[C@@H]4CC=C3[C@]2(C)C[C@@H]3OC4(C[C@@H](C)[C@@H]3[C@@]12C)OC(O)[C@@]1(C)O[C@@H]41` (stereo not given in full), the GI50 was 32.1 µM (inactive) in assay [1]; 27.9 µM (inactive) in [2]; 21.3 µM (inactive) in assay [3]; 27.4 µM (inactive) in assay [4]; 36.5 µM (inactive) in assay [5]; 23.8 µM (inactive) in assay [6]. For the same compound, the GI50 in [7] was 47.2 µM (inactive); in [8] it was 32.4 µM (inactive); in assay [9] it was 30.9 µM (inactive); in assay [10], 25.3 µM (inactive); in assay [11] it was 23 µM (inactive); in assay [12] it was 12.1 µM (inactive). Besides, the GI50 is 47.5 µM (inactive) in assay [13]; 19.6 µM (inactive) in [14]; 19.7 µM (inactive) in [15]; 31.5 µM (inactive) in assay [16]; 25 µM (inactive) in assay [17]; 36.5 µM (inactive) in [18]. The GI50 in assay [19] was 20.8 µM (inactive); in assay [20], 30.7 µM (inactive).
For `Cc1cc(CN2CCCCC2)c(O)c(CN2CCCCC2)c1`, the GI50 in [1], in [2], in assay [3], in [4], in [5] and in [6] was > 100 µM (inactive) throughout. In addition, the GI50 in assay [7], in [8], in [9], in [10], in assay [11] and in assay [12] was > 100 µM (inactive) each time. Further, the GI50 in [13] is > 100 µM (inactive); in [14], 22.8 µM (inactive); in assay [15] it was > 100 µM (inactive); in assay [16], > 100 µM (inactive); in assay [17], > 100 µM (inactive); in [18], > 100 µM (inactive). Also, the GI50 in assay [19] and in assay [20] was > 100 µM (inactive) throughout.
For `C=CCOC(=O)[C@@H]1C[C@@H](OC(C)(C)C)CN1C(=O)[C@@H]1[C@H]2OC(C)(C)O[C@H]2CN1C(=O)OCC1c2ccccc2-c2ccccc21`, the GI50 was 15.7 µM (inactive) in assay [1]; 20.1 µM (inactive) in assay [2]; 18.1 µM (inactive) in assay [3]; 1.75 µM (inactive) in assay [4]; 17 µM (inactive) in [5]; 11 µM (inactive) in assay [6]. Also, the GI50 in assay [7] was 19.7 µM (inactive); in [8], 17.2 µM (inactive); in assay [9] it was 18.1 µM (inactive); in [10], 10.5 µM (inactive); in assay [11] it was 0.383 µM (active); in assay [12], 17.9 µM (inactive). Further, the GI50 in [13] is 16.9 µM (inactive); in assay [14], 6.19 µM (inactive); in assay [15], 32.2 µM (inactive); in assay [16], 17 µM (inactive); in assay [17], 17.5 µM (inactive); in assay [18], 20.9 µM (inactive). Also, the figures for the GI50 in assay [19] and in assay [20] were 19.4 µM (inactive) and 12.6 µM (inactive), respectively.
Turning to `CCOCc1nc2c(OC)c(-c3nc4ccc(N5CCN(C)CC5)cc4[nH]3)cc(OC)c2[nH]1`, the GI50 in [1] was 37 µM (inactive); in [2], 66.4 µM (inactive); in assay [3], 18.9 µM (inactive); in [4], 25.6 µM (inactive); in assay [5], 91.6 µM (inactive); in assay [6] it was 35.6 µM (inactive). Further, the GI50 is 20.2 µM (inactive) in [7]; 20.6 µM (inactive) in [8]; 18.6 µM (inactive) in assay [9]; 26.4 µM (inactive) in assay [10]; 23.5 µM (inactive) in [11]; 31.6 µM (inactive) in [12]. Moreover, the GI50 in [13] is 83.6 µM (inactive); in assay [14], 40.1 µM (inactive); in [15] it was 20.6 µM (inactive); in [16], 74.3 µM (inactive); in [17] it was 28.9 µM (inactive); in assay [18], 34.7 µM (inactive). Further, the GI50 in [19] was > 100 µM (inactive); in assay [20] it was 43.3 µM (inactive).
For the compound `O=c1c2ccccc2c2ccccc2c(=O)n1Cc1ccc2c(c1)OCO2`, the GI50 in assay [1] was > 70.5 µM (inactive); in [2] it was 20.9 µM (inactive); in [3] it was 34 µM (inactive); in assay [4] it was 62.1 µM (inactive); in assay [5] it was 8.51 µM (inactive); in assay [6] it was 7.45 µM (inactive). For the same compound, the GI50 in [7] is 26.9 µM (inactive); in assay [8], 6.17 µM (inactive); in assay [9] it was 10.1 µM (inactive); in assay [10], 24.6 µM (inactive); in assay [11] it was 30.8 µM (inactive); in [12], 24.6 µM (inactive). Besides, the GI50 in assay [13] was 34 µM (inactive); in assay [14], 15.9 µM (inactive); in assay [15], 39.7 µM (inactive); in [16] it was 37.5 µM (inactive); in assay [17], 42.7 µM (inactive); in assay [18], 33.3 µM (inactive). Besides, the GI50 in [19] was 39.9 µM (inactive); in [20] it was > 62.2 µM (inactive).
As for `COC(=O)[C@]1(c2cc3ccccc3n2S(=O)(=O)c2ccccc2)CC2CN(C(C)=O)C1CC2=O` (stereo not given in full), the GI50 in assay [1] was 9.64 µM (inactive); in assay [2], 2.61 µM (inactive); in [3], 2.42 µM (inactive); in [4], 5.08 µM (inactive); in assay [5] it was 2.57 µM (inactive); in assay [6], 1.98 µM (inactive). Also, the GI50 is 1.96 µM (inactive) in assay [7]; 2.34 µM (inactive) in [8]; 2.79 µM (inactive) in assay [9]; 3.14 µM (inactive) in assay [10]; 1.75 µM (inactive) in [11]; 1.99 µM (inactive) in [12]. For the same compound, the GI50 in assay [13] was 3.3 µM (inactive); in assay [14], 0.65 µM (active); in [15], 2.77 µM (inactive); in assay [16], 2.68 µM (inactive); in assay [17], 3.15 µM (inactive); in [18] it was 1.94 µM (inactive). Moreover, the GI50 in assay [19] is 2.16 µM (inactive); in assay [20] it was 1.6 µM (inactive).
Consider `CC1=NN(c2ccc(S(=O)(=O)O)cc2)C2(C1)C(Cl)C(=O)N2c1nc2ccccc2s1` (stereo not given), for which the GI50 in assay [1] was > 100 µM (inactive); in assay [2], > 100 µM (inactive); in assay [3], > 100 µM (inactive); in [4] it was 91.2 µM (inactive); in assay [5] it was > 100 µM (inactive); in assay [6], > 100 µM (inactive). Further, the GI50 is > 100 µM (inactive) in assay [7]; > 100 µM (inactive) in assay [8]; > 100 µM (inactive) in assay [9]; > 100 µM (inactive) in [10]; > 100 µM (inactive) in [11]; 68.4 µM (inactive) in assay [12]. The GI50 in assay [13] is > 100 µM (inactive); in assay [14], > 100 µM (inactive); in assay [15] it was 92.5 µM (inactive); in assay [16], > 100 µM (inactive); in assay [17], > 100 µM (inactive); in [18] it was > 100 µM (inactive). In addition, the GI50 in [19] is 59.8 µM (inactive); in assay [20], > 100 µM (inactive).
For `O=C(OCc1ccccc1)N1CCNCCNCCN(C(=O)OCc2ccccc2)CCNCC1`, the GI50 in assay [1] is 20.8 µM (inactive); in [2], 60.7 µM (inactive); in [3] it was 13.6 µM (inactive); in assay [4] it was 36.7 µM (inactive); in [5], 32.1 µM (inactive); in assay [6] it was 13 µM (inactive). Further, the GI50 in assay [7] was 16.6 µM (inactive); in [8] it was 16.1 µM (inactive); in [9] it was 16.2 µM (inactive); in assay [10], 21.2 µM (inactive); in assay [11], 15.7 µM (inactive); in assay [12], 56.9 µM (inactive). Besides, the GI50 in assay [13] was 33.3 µM (inactive); in [14], 19.5 µM (inactive); in assay [15], 17.5 µM (inactive); in [16] it was 47.4 µM (inactive); in assay [17], 21.5 µM (inactive); in assay [18], 17.1 µM (inactive). Besides, the GI50 in assay [19] was 17.1 µM (inactive); in assay [20] it was 17.9 µM (inactive).
As for `COc1cc([N+](=O)[O-])c(S(=O)(=O)O)cc1NS(=O)(=O)c1ccc(C)cc1`, the GI50 in assay [1], in [2], in assay [3], in assay [4], in [5] and in assay [6] was > 100 µM (inactive) throughout. Moreover, the GI50 in [7], in [8], in assay [9], in [10], in assay [11] and in assay [12] was > 100 µM (inactive) in each case. Further, the GI50 in [13], in [14], in assay [15], in assay [16], in assay [17] and in assay [18] was > 100 µM (inactive) in each case. The GI50 in assay [19] and in assay [20] was > 100 µM (inactive) throughout.
